Test results as given in paper PMC9127750, “Structure-based design of CDC42 effector interaction inhibitors for the treatment of cancer” (Cell reports, 2022).
Several values for one entry are separate records, joined by “and”; a condition that tells them apart may be missing. Equal values may be shown once.

Test system: WM3248 melanoma cells, 486 antibodies
Experiment: Reverse phase protein arrays (RPPA)
Format: cell-based, Human
Description: Pellets were snap frozen in liquid nitrogen and shipped to MD Anderson Cancer Center core RPPA facility for RPPA analysis (Table S5). Three biological replicates for each sample were generated.
Nomenclatures on the RPPA heatmaps: name_of_antibody.species_of_antibody.status_of_antibody. V - antibody validated; C - validation of antibody in progress; Q - antibody nonspecific; E – under evaluation; antibodies raised in M - mouse, G - goat, R - rabbit, or T - rat.

With CN(C)c1cccc(Nc2cc(-c3ccccc3)nc(C3CCNCC3)n2)c1 [ARN22089, N1,N1-dimethyl-N3-(6-phenyl-2-(piperidin-4-yl)pyrimidin-4-yl)benzene-1,3-diamine] the “LCN2.R.V Norm_10 Average” value (level 10 vs 0) was 1.417, the “LDHA.R.C Norm_10 Average” value (level 10 vs 0) was 1.541 and the “LRP6_pS1490.R.V Norm_10 Average” value (level 10 vs 0) was 0.919. The “Lasu1.R.V Norm_10 Average” value (level 10 vs 0) was 1.173, the “MACC1.R.V Norm_10 Average” value (level 10 vs 0) was 0.973 and the “MAPK_pT202_Y204.R.C Norm_10 Average” value (level 10 vs 0) was 0.758. For the same compound, the “MCT4.R.V Norm_10 Average” value (level 10 vs 0) was 0.926, the “MDM2_pS166.R.V Norm_10 Average” value (level 10 vs 0) was 1.140 and the “MEK1.R.V Norm_10 Average” value (level 10 vs 0) was 1.376. For the same compound, the “MEK1_pS217_S221.R.V Norm_10 Average” value (level 10 vs 0) was 0.904, the “MEK2.R.V Norm_10 Average” value (level 10 vs 0) was 0.981 and the “MERIT40.R.C Norm_10 Average” value (level 10 vs 0) was 0.966. For the same compound, the “MERIT40_pS29.R.V Norm_10 Average” value (level 10 vs 0) was 1.055, the “METTL3.R.V Norm_10 Average” value (level 10 vs 0) was 1.153 and the “MIF.R.C Norm_10 Average” value (level 10 vs 0) was 1.003. The “MIG6.R.V Norm_10 Average” value (level 10 vs 0) was 0.937, the “MITF.R.V Norm_10 Average” value (level 10 vs 0) was 1.099 and the “MLH1.M.V Norm_10 Average” value (level 10 vs 0) was 0.965. The “MLKL.R.V Norm_10 Average” value (level 10 vs 0) was 0.901, the “MMP2.R.V Norm_10 Average” value (level 10 vs 0) was 0.936 and the “MMP14.R.V Norm_10 Average” value (level 10 vs 0) was 1.251. For the same compound, the “MR1.M.C Norm_10 Average” value (level 10 vs 0) was 1.002, the “MSH6.R.C Norm_10 Average” value (level 10 vs 0) was 1.139 and the “MSI2.R.C Norm_10 Average” value (level 10 vs 0) was 1.076. For the same compound, the “MTCO1.M.V Norm_10 Average” value (level 10 vs 0) was 1.058, the “MTSS1.M.C Norm_10 Average” value (level 10 vs 0) was 0.995 and the “Mcl.1.R.V Norm_10 Average” value (level 10 vs 0) was 0.815. For the same compound, the “MelanA.R.C Norm_10 Average” value (level 10 vs 0) was 0.907, the “Melanoma.gp100.R.C Norm_10 Average” value (level 10 vs 0) was 0.952 and the “Merlin.R.C Norm_10 Average” value (level 10 vs 0) was 1.140. The “Midkine.R.V Norm_10 Average” value (level 10 vs 0) was 0.931, the “Mitofusin.1.R.V Norm_10 Average” value (level 10 vs 0) was 0.966 and the “Mitofusin.2.R.V Norm_10 Average” value (level 10 vs 0) was 0.982. The “Mnk1.R.V Norm_10 Average” value (level 10 vs 0) was 0.908, the “mTOR_pS2448.R.C Norm_10 Average” value (level 10 vs 0) was 1.026 and the “HLA.DQA1.R.V Norm_10” value (level 10 vs 0, replicates) was 0.816 and 1.208 and 0.956. For the same compound, the “HLA.DR.DP.DQ.DX.R.C Norm_10” value (level 10 vs 0, replicates) was 0.907 and 1.197, the “HMHA1.R.V Norm_10” value (level 10 vs 0, replicates) was 0.915 and 0.873 and 0.979 and the “HNRNPK.R.V Norm_10” value (level 10 vs 0, replicates) was 0.952 and 0.960. For the same compound, the “HSP27.M.C Norm_10” value (level 10 vs 0, replicates) was 0.892 and 1.008 and 0.976, the “HSP27_pS82.R.V Norm_10” value (level 10 vs 0, replicates) was 0.956 and 0.808 and 0.983 and the “HSP60.R.V Norm_10” value (level 10 vs 0, replicates) was 0.910 and 0.899 and 0.970. For the same compound, the “HSP70.R.C Norm_10” value (level 10 vs 0, replicates) was 0.893 and 0.957, the “Hexokinase.I.R.C Norm_10” value (level 10 vs 0, replicates) was 1.324 and 1.263 and the “Hexokinase.II.R.V Norm_10” value (level 10 vs 0, replicates) was 1.158 and 1.060 and 1.165. For the same compound, the “Hif.1αR.C Norm_10” value (level 10 vs 0, replicates) was 1.534 and 0.812 and 1.121, the “Histone.H3.R.V Norm_10” value (level 10 vs 0, replicates) was 1.104 and 1.109 and 0.657 and the “Histone.H3_pS10.R.V Norm_10” value (level 10 vs 0, replicates) was 0.925 and 1.333 and 0.853. For the same compound, the “IDO.R.C Norm_10” value (level 10 vs 0, replicates) was 1.020 and 0.847 and 1.005, the “IGF1R_pY1135_Y1136.R.V Norm_10” value (level 10 vs 0, replicates) was 1.020 and 0.873 and 0.862 and the “IGFBP2.R.V Norm_10” value (level 10 vs 0, replicates) was 0.915 and 0.942. For the same compound, the “IGFBP3.M.V Norm_10” value (level 10 vs 0, replicates) was 0.808 and 1.056 and 1.048, the “IGFRb.R.C Norm_10” value (level 10 vs 0, replicates) was 1.063 and 0.914 and 0.882 and the “IL.6.R.C Norm_10” value (level 10 vs 0, replicates) was 0.956 and 0.898 and 0.919. For the same compound, the “IMP3.R.C Norm_10” value (level 10 vs 0, replicates) was 0.902 and 1.022 and 0.935, the “INPP4b.R.C Norm_10” value (level 10 vs 0, replicates) was 0.944 and 1.130 and 1.013 and the “IR.b.R.C Norm_10” value (level 10 vs 0, replicates) was 1.057 and 0.927 and 0.958. The “IRF.1.R.V Norm_10” value (level 10 vs 0, replicates) was 0.995 and 0.851 and 0.777, the “IRF.3.R.V Norm_10” value (level 10 vs 0, replicates) was 0.868 and 1.016 and 1.018 and the “IRS1.R.V Norm_10” value (level 10 vs 0, replicates) was 1.002 and 0.864 and 0.920. For the same compound, the “IRS2.R.C Norm_10” value (level 10 vs 0, replicates) was 1.495 and 0.732 and 0.873, the “JAB1.M.C Norm_10” value (level 10 vs 0, replicates) was 1.010 and the “JNK2.R.V Norm_10” value (level 10 vs 0, replicates) was 0.700 and 4.357 and 1.864. For the same compound, the “JNK_pT183_Y185.R.C Norm_10” value (level 10 vs 0, replicates) was 1.101 and 0.836 and 0.927, the “Jagged1.R.V Norm_10” value (level 10 vs 0, replicates) was 0.925 and 0.930 and 0.952 and the “Jak2.R.V Norm_10” value (level 10 vs 0, replicates) was 0.891 and 0.946. The “KAP1.R.V Norm_10” value (level 10 vs 0, replicates) was 1.129 and 0.933 and 1.246, the “KEAP1.R.V Norm_10” value (level 10 vs 0, replicates) was 1.137 and 0.961 and 0.953 and the “LAD1.R.V Norm_10” value (level 10 vs 0, replicates) was 0.810 and 0.787 and 1.126. For the same compound, the “LC3A.B.R.C Norm_10” value (level 10 vs 0, replicates) was 1.080, the “LCN2.R.V Norm_10” value (level 10 vs 0, replicates) was 1.979 and 1.149 and 1.123 and the “LDHA.R.C Norm_10” value (level 10 vs 0, replicates) was 1.080 and 1.446 and 2.097. For the same compound, the “LRP6_pS1490.R.V Norm_10” value (level 10 vs 0, replicates) was 0.997 and 0.923 and 0.837, the “Lasu1.R.V Norm_10” value (level 10 vs 0, replicates) was 0.972 and 1.377 and 1.170 and the “Lck.R.V Norm_10” value (level 10 vs 0, replicates) was 1.025. For the same compound, the “Lyn.R.V Norm_10” value (level 10 vs 0, replicates) was 0.836 and 1.342 and 1.046, the “MACC1.R.V Norm_10” value (level 10 vs 0, replicates) was 0.988 and 0.983 and the “MAPK_pT202_Y204.R.C Norm_10” value (level 10 vs 0, replicates) was 0.814 and 0.633 and 0.828. The “MCT4.R.V Norm_10” value (level 10 vs 0, replicates) was 0.718 and 0.987, the “MDM2_pS166.R.V Norm_10” value (level 10 vs 0, replicates) was 1.187 and 1.159 and the “MEK1.R.V Norm_10” value (level 10 vs 0, replicates) was 3.067 and 0.225 and 0.836.
